Source: US9795607B2, “Substituted pyrrolopyrimidine compounds, compositions thereof, and methods of treatment therewith” (Signal Pharmaceutical, LLC, priority 2013, dated 2017)
pIC50: −log10 of the molar value. Like-named read-outs stand apart in the source and are kept apart here.

Tested on: Triple negative breast cancer cell line CAL51
Assay: Cell Titer Glo proliferation assay, CAL51
Format: cell-based
Settings: Homo sapiens, CAL-51, read-out: Act. Level
Method: Cell Titer Glo Proliferation Assay.
Triple negative breast cancer cell line CAL51 was purchased from DSMZ. […] Allcell lines were maintained in growth media consisting of 90% high glucose Dulbecco's Modified Eagle Medium or RPMI1640 (Invitrogen), 10% fetal bovine serum (Hyclone), and 2 mM L-glutamine (Invitrogen). […] After overnight culture, compound stock (30 mM) was diluted serially in DMSO, further diluted in growth media, and was added to each well as a 10× concentrated solution in a volume of 11 μL, mixed, and allowed to incubate with cells. The compound vehicle (DMSO) was maintained at a final concentration of 0.2% in all wells. After 72 h, 100 μL of Cell Titer Glo solution (Promega) was added to each well of the 96-well plate. The plate was placed on a shaker for 2 minutes. After 10 minutes incubation, the luminescence signal was detected with Envision microplate reader (Perkin Elmer).

[1] = CAL51 cell proliferation (Table 1)
[2] = CAL51 cell proliferation, Cell Titer Glo

Structure (SMILES)	pIC50 [1]	pIC50 [2]	other results
COc1cc(C(=O)NC2COC2)ccc1Nc1nc(OC2CCC2)c2c(-c3ccc(-c4ncc[nH]4)cc3)c[nH]c2n1 [Example 360, 4-(5-(4-(1H-imidazol-2-yl)phenyl)-4-cyclobutoxy-7H-pyrrolo[2,3-d]pyrimidin-2-ylamino)-3-methoxy-N-(oxetan-3-yl)benzamide]	–	> 7.00	–
COc1cc(C(=O)NC2COC2)ccc1Nc1nc(OC(C)(C)C)c2c(-c3ccc4nc(C)oc4c3)c[nH]c2n1 [Example 370, 4-(4-tert-butoxy-5-(2-methylbenzo[d]oxazol-6-yl)-7H-pyrrolo[2,3-d]pyrimidin-2-ylamino)-3-methoxy-N-(oxetan-3-yl)benzamide]	–	> 7.00	–
CNC(=O)c1ccc(Nc2nc(OC3CCCC3)c3c(-c4c(C)noc4C)c[nH]c3n2)c(OC)c1 [Example 321, 4-(4-(cyclopentyloxy)-5-(3,5-dimethylisoxazol-4-yl)-7H-pyrrolo[2,3-d]pyrimidin-2-ylamino)-3-methoxy-N-methylbenzamide]	–	5.00 to 6.00	–
COc1cc(C2CCOCC2)ncc1Nc1nc(OC)c2c(-c3ccnc(F)c3)c[nH]c2n1 [Example 416, 5-(2-fluoropyridin-4-yl)-4-methoxy-N-(4-methoxy-6-(tetrahydro-2H-pyran-4-yl)pyridin-3-yl)-7H-pyrrolo[2,3-d]pyrimidin-2-amine]	5.00 to 6.00	–	–
CNC(=O)c1ccc(-c2c[nH]c3nc(Nc4ccc(C(=O)NC5CN(C)C5)cc4OC)nc(OC4CCOCC4)c23)cc1 [Example 366, 3-methoxy-N-(1-methylazetidin-3-yl)-4-(5-(4-(methylcarbamoyl)phenyl)-4-(tetrahydro-2H-pyran-4-yloxy)-7H-pyrrolo[2,3-d]pyrimidin-2-ylamino)benzamide]	–	6.40 to 7.00	–
COc1cc(C(=O)NCCO)ccc1Nc1nc(OC2CCOCC2)c2c(-c3cnn(C)c3)c[nH]c2n1 [Example 327, N-(2-hydroxyethyl)-3-methoxy-4-(5-(1-methyl-1H-pyrazol-4-yl)-4-(tetrahydro-2H-pyran-4-yloxy)-7H-pyrrolo[2,3-d]pyrimidin-2-ylamino)benzamide]	–	6.40 to 7.00	–
COc1nc(Nc2ccc3[nH]ncc3c2C)nc2[nH]cc(-c3ccncc3)c12 [Example 414, 4-methoxy-N-(4-methyl-1H-indazol-5-yl)-5-(pyridin-4-yl)-7H-pyrrolo[2,3-d]pyrimidin-2-amine]	5.00 to 6.00	–	–
COc1cc(C(=O)NC2COC2)ccc1Nc1nc(OC)c2c(-c3ccncn3)c[nH]c2n1 [Example 395, 3-methoxy-4-(4-methoxy-5-(pyrimidin-4-yl)-7H-pyrrolo[2,3-d]pyrimidin-2-ylamino)-N-(oxetan-3-yl)benzamide]	–	5.00 to 6.00	–
CNC(=O)c1ccc(Nc2nc(OC3CCC(O)CC3)c3c(-c4ccc5nc(C)oc5c4)c[nH]c3n2)c(OC)c1 (centres unmarked) [Example 137, 4-(4-((1r,4r)-4-hydroxycyclohexyloxy)-5-(2-methylbenzo[d]oxazol-6-yl)-7H-pyrrolo[2,3-d]pyrimidin-2-ylamino)-3-methoxy-N-methylbenzamide]	–	–	pIC50 (CAL51 cell proliferation, activity level class of IC50): > 7.00
COc1nc(Nc2ccc3c(cnn3C)c2C)nc2[nH]cc(-c3ccncc3)c12 [Example 419, N-(1,4-dimethyl-1H-indazol-5-yl)-4-methoxy-5-(pyridin-4-yl)-7H-pyrrolo[2,3-d]pyrimidin-2-amine]	6.40 to 7.00	–	–
CNC(=O)c1ccc(-c2c[nH]c3nc(Nc4ccc(C(=O)NC5CN(C)C5)cc4OC)nc(OC4CCC(C)(O)CC4)c23)cc1 (centres unmarked) [Example 349, 4-(4-((1s,4s)-4-hydroxy-4-methylcyclohexyloxy)-5-(4-(methylcarbamoyl)phenyl)-7H-pyrrolo[2,3-d]pyrimidin-2-ylamino)-3-methoxy-N-(1-methylazetidin-3-yl)benzamide]	–	6.40 to 7.00	–
CNC(=O)c1ccc(-c2c[nH]c3nc(Nc4cn(C)nc4C)nc(OC4CCC4)c23)cc1 [Example 340, 4-(4-cyclobutoxy-2-(1,3-dimethyl-1H-pyrazol-4-ylamino)-7H-pyrrolo[2,3-d]pyrimidin-5-yl)-N-methylbenzamide]	–	> 7.00	–
COc1cc(C(=O)N(C)C)ccc1Nc1nc(OC(C)C)c2c(-c3ccnc(F)c3)c[nH]c2n1 [Example 403, 4-(5-(2-fluoropyridin-4-yl)-4-isopropoxy-7H-pyrrolo[2,3-d]pyrimidin-2-ylamino)-3-methoxy-N,N-dimethylbenzamide]	> 7.00	–	–
COc1cc(C(=O)N(C)C2COC2)ccc1Nc1nc(OC)c2c(-c3ccnc(F)c3)c[nH]c2n1 [Example 413, 4-(5-(2-fluoropyridin-4-yl)-4-methoxy-7H-pyrrolo[2,3-d]pyrimidin-2-ylamino)-3-methoxy-N-methyl-N-(oxetan-3-yl)benzamide]	6.40 to 7.00	–	–

Now from value to molecule, other results behind:

pIC50 [1]	pIC50 [2]	Structure (SMILES)	other results
> 7.00	–	COc1nc(Nc2ccc(C(=O)N(C)C)cc2C)nc2[nH]cc(-c3ccc4[nH]c(C)nc4c3)c12 [Example 399, 4-(4-methoxy-5-(2-methyl-1H-benzo[d]imidazol-5-yl)-7H-pyrrolo[2,3-d]pyrimidin-2-ylamino)-N,N,3-trimethylbenzamide]	–
–	6.40 to 7.00	CNC(=O)c1ccc(Nc2nc(OC3CCCC3)c3c(-c4cc(F)c5nc(C)oc5c4)c[nH]c3n2)c(OC)c1 [Example 330, 4-(4-(cyclopentyloxy)-5-(4-fluoro-2-methylbenzo[d]oxazol-6-yl)-7H-pyrrolo[2,3-d]pyrimidin-2-ylamino)-3-methoxy-N-methylbenzamide]	–
> 7.00	–	CNC(=O)c1ccc(Nc2nc(OC3CCC(C)(O)CC3)c3c(-c4ccc5nc(C)oc5c4)c[nH]c3n2)c(Cl)c1 (centres unmarked) [Example 429, 3-chloro-4-(4-((1s,4s)-4-hydroxy-4-methylcyclohexyloxy)-5-(2-methylbenzo[d]oxazol-6-yl)-7H-pyrrolo[2,3-d]pyrimidin-2-ylamino)-N-methylbenzamide]	–
–	5.00 to 6.00	CNC(=O)c1ccc(Nc2nc(OC3CC3)c3c(-c4ccn(C)n4)c[nH]c3n2)c(OC)c1 [Example 218, 4-(4-cyclopropoxy-5-(1-methyl-1H-pyrazol-3-yl)-7H-pyrrolo[2,3-d]pyrimidin-2-ylamino)-3-methoxy-N-methylbenzamide]	–
> 7.00	–	CCCc1cc(C(=O)NC)ccc1Nc1nc(OC2CCOCC2)c2c(-c3ccc4nc(C)oc4c3)c[nH]c2n1 [Example 436, N-methyl-4-(5-(2-methylbenzo[d]oxazol-6-yl)-4-(tetrahydro-2H-pyran-4-yloxy)-7H-pyrrolo[2,3-d]pyrimidin-2-ylamino)-3-propylbenzamide]	–
> 7.00	–	CNC(=O)c1ccc(-c2c[nH]c3nc(Nc4ccc(C(=O)NC)cc4Cl)nc(O[C@@H]4CCOC4)c23)cc1 [Example 434, (R)-3-chloro-N-methyl-4-(5-(4-(methylcarbamoyl)phenyl)-4-(tetrahydrofuran-3-yloxy)-7H-pyrrolo[2,3-d]pyrimidin-2-ylamino)benzamide]	–
–	6.40 to 7.00	COc1cc(C(=O)NC2COC2)ccc1Nc1nc(OC)c2c(-c3ccncc3)c[nH]c2n1 [Example 347, 3-methoxy-4-(4-methoxy-5-(pyridin-4-yl)-7H-pyrrolo[2,3-d]pyrimidin-2-ylamino)-N-(oxetan-3-yl)benzamide]	–
> 7.00	–	CNC(=O)c1ccc(-c2c[nH]c3nc(Nc4ccc(C(=O)NC)cc4Cl)nc(OC4CCCC4)c23)cc1 [Example 425, 3-chloro-4-(4-(cyclopentyloxy)-5-(4-(methylcarbamoyl)phenyl)-7H-pyrrolo[2,3-d]pyrimidin-2-ylamino)-N-methylbenzamide]	–
–	6.40 to 7.00	COc1cc(C(=O)NC2COC2)ccc1Nc1nc(OC2CC2)c2c(-c3ccc4nc(C)oc4c3)c[nH]c2n1 [Example 369, 4-(4-cyclopropoxy-5-(2-methylbenzo[d]oxazol-6-yl)-7H-pyrrolo[2,3-d]pyrimidin-2-ylamino)-3-methoxy-N-(oxetan-3-yl)benzamide]	–
–	> 7.00	COc1cc(C(=O)NC2COC2)ccc1Nc1nc(OC2CCOCC2)c2c(-c3ccc4nc(C)oc4c3)c[nH]c2n1 [Example 368, 3-methoxy-4-(5-(2-methylbenzo[d]oxazol-6-yl)-4-(tetrahydro-2H-pyran-4-yloxy)-7H-pyrrolo[2,3-d]pyrimidin-2-ylamino)-N-(oxetan-3-yl)benzamide]	–
6.00 to 6.40	–	COc1nc(Nc2ccc(C(=O)N(C)C)cc2C)nc2[nH]cc(-c3ccnc(F)c3)c12 [Example 409, 4-(5-(2-fluoropyridin-4-yl)-4-methoxy-7H-pyrrolo[2,3-d]pyrimidin-2-ylamino)-N,N,3-trimethylbenzamide]	–
> 7.00	–	CNC(=O)c1ccc(-c2c[nH]c3nc(Nc4ccc(C(=O)NC)cc4Cl)nc(OC(C)C)c23)cc1 [Example 432, 3-chloro-4-(4-isopropoxy-5-(4-(methylcarbamoyl)phenyl)-7H-pyrrolo[2,3-d]pyrimidin-2-ylamino)-N-methylbenzamide]	–
–	> 7.00	COCCn1ncc(Nc2nc(OC3CCCC3)c3c(-c4ccc5nc(C)oc5c4)c[nH]c3n2)c1Cl [Example 378, N-(5-chloro-1-(2-methoxyethyl)-1H-pyrazol-4-yl)-4-(cyclopentyloxy)-5-(2-methylbenzo[d]oxazol-6-yl)-7H-pyrrolo[2,3-d]pyrimidin-2-amine]	–
> 7.00	–	CNC(=O)c1ccc(Nc2nc(OC)c3c(-c4ccc5nc(C)oc5c4)c[nH]c3n2)c(Cl)c1 [Example 427, 3-chloro-4-(4-methoxy-5-(2-methylbenzo[d]oxazol-6-yl)-7H-pyrrolo[2,3-d]pyrimidin-2-ylamino)-N-methylbenzamide]	–
6.40 to 7.00	–	COc1cc(C(=O)NC2COC2)ccc1Nc1nc(OC)c2c(-c3cc(C)nc(F)c3)c[nH]c2n1 [Example 424, 4-(5-(2-fluoro-6-methylpyridin-4-yl)-4-methoxy-7H-pyrrolo[2,3-d]pyrimidin-2-ylamino)-3-methoxy-N-(oxetan-3-yl)benzamide]	–
